In brackets after ≈: the same amount, converted by molar mass.
Key:
[1] = system: Acinetobacter calcoaceticus CMX 669; assay: In vitro antibacterial activity, MIC by agar dilution; type: cell-based; settings: BHI agar, 35-37°C, 20-24 hours, unit assumed
How it was run: (§1)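 Plates were inoculated with 1:100 dilutions of each strain (1:10 for slow growers) via Steers replicator delivering approximately 10^4 CFU, then incubated at about 35–37°C for approximately 20–24 hours. MIC is the lowest compound concentration giving no growth versus a compound-free BHI agar growth control.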

[2] = system: Enterobacter aerogenes ATCC 13048; assay: as above; type: cell-based; settings: BHI agar, 35-37°C, 20-24 hours, unit assumed
How it was run: as §1

[3] = system: Enterococcus faecium ATCC 8043; assay: as above; type: cell-based; settings: BHI agar, 35-37°C, 20-24 hours, unit assumed
How it was run: as §1

Escherichia coli DC-2 = assay: as above; type: cell-based; settings: BHI agar, 35-37°C, 20-24 hours, unit assumed
How it was run: as §1

Escherichia coli H560 = assay: as above; type: cell-based; settings: BHI agar, 35-37°C, 20-24 hours, unit assumed
How it was run: as §1

Escherichia coli JUHL [4] = assay: as above; type: cell-based; settings: BHI agar, 35-37°C, 20-24 hours, unit assumed
How it was run: as §1

Escherichia coli KNK 437 = assay: as above; type: cell-based; settings: BHI agar, 35-37°C, 20-24 hours, unit assumed
How it was run: as §1

Escherichia coli SS = assay: as above; type: cell-based; settings: BHI agar, 35-37°C, 20-24 hours, unit assumed
How it was run: as §1

[5] = system: Klebsiella pneumoniae ATCC 8045; assay: as above; type: cell-based; settings: BHI agar, 35-37°C, 20-24 hours, unit assumed
How it was run: as §1

[6] = system: Micrococcus luteus ATCC 4698; assay: as above; type: cell-based; settings: BHI agar, 35-37°C, 20-24 hours, unit assumed
How it was run: as §1

[7] = system: Micrococcus luteus ATCC 9341; assay: as above; type: cell-based; settings: BHI agar, 35-37°C, 20-24 hours, unit assumed
How it was run: as §1

[8] = system: Providencia stuartii CMX 640; assay: as above; type: cell-based; settings: BHI agar, 35-37°C, 20-24 hours, unit assumed
How it was run: as §1

[9] = system: Pseudomonas aeruginosa 2862; assay: as above; type: cell-based; settings: BHI agar, 35-37°C, 20-24 hours, unit assumed
How it was run: as §1

[10] = system: Pseudomonas aeruginosa 5263; assay: as above; type: cell-based; settings: BHI agar, 35-37°C, 20-24 hours, unit assumed
How it was run: as §1

[11] = system: Pseudomonas aeruginosa A5007; assay: as above; type: cell-based; settings: BHI agar, 35-37°C, 20-24 hours, unit assumed
How it was run: as §1

[12] = system: Pseudomonas aeruginosa BMH10; assay: as above; type: cell-based; settings: BHI agar, 35-37°C, 20-24 hours, unit assumed
How it was run: as §1

[13] = system: Pseudomonas aeruginosa K799/61; assay: as above; type: cell-based; settings: BHI agar, 35-37°C, 20-24 hours, unit assumed
How it was run: as §1

[14] = system: Pseudomonas aeruginosa K799/WT; assay: as above; type: cell-based; settings: BHI agar, 35-37°C, 20-24 hours, unit assumed
How it was run: as §1

Pseudomonas cepacia 296I = assay: as above; type: cell-based; settings: BHI agar, 35-37°C, 20-24 hours, unit assumed
How it was run: as §1

[15] = system: Staphylococcus aureus 1775; assay: as above; type: cell-based; settings: BHI agar, 35-37°C, 20-24 hours, unit assumed
How it was run: as §1

[16] = system: Staphylococcus aureus 642A; assay: as above; type: cell-based; settings: BHI agar, 35-37°C, 20-24 hours, unit assumed
How it was run: as §1

[17] = system: Staphylococcus aureus A-5278; assay: as above; type: cell-based; settings: BHI agar, 35-37°C, 20-24 hours, unit assumed
How it was run: as §1

[18] = system: Staphylococcus aureus A5177; assay: as above; type: cell-based; settings: BHI agar, 35-37°C, 20-24 hours, unit assumed
How it was run: as §1

[19] = system: Staphylococcus aureus ATCC 6538P; assay: as above; type: cell-based; settings: BHI agar, 35-37°C, 20-24 hours, unit assumed
How it was run: as §1

[20] = system: Staphylococcus aureus CMX 553; assay: as above; type: cell-based; settings: BHI agar, 35-37°C, 20-24 hours, unit assumed
How it was run: as §1

[21] = system: Staphylococcus aureus NCTC 10649; assay: as above; type: cell-based; settings: BHI agar, 35-37°C, 20-24 hours, unit assumed
How it was run: as §1

[22] = system: Staphylococcus epidermidis 3519; assay: as above; type: cell-based; settings: BHI agar, 35-37°C, 20-24 hours, unit assumed
How it was run: as §1

[23] = system: Streptococcus agalactaciae CMX 508; assay: as above; type: cell-based; settings: BHI agar, 35-37°C, 20-24 hours, unit assumed
How it was run: as §1

[24] = system: Streptococcus bovis A5169; assay: as above; type: cell-based; settings: BHI agar, 35-37°C, 20-24 hours, unit assumed
How it was run: as §1

[25] = system: Streptococcus pyrogenes 2548 INDUC; assay: as above; type: cell-based; settings: BHI agar, 35-37°C, 20-24 hours, unit assumed
How it was run: as §1

[26] = system: Streptococcus pyrogenes CONST; assay: as above; type: cell-based; settings: BHI agar, 35-37°C, 20-24 hours, unit assumed
How it was run: as §1

[27] = system: Streptococcus pyrogenes EES61; assay: as above; type: cell-based; settings: BHI agar, 35-37°C, 20-24 hours, unit assumed
How it was run: as §1

[28] = system: Staphylococcus aureus NCTC 10649; assay: In vivo antibacterial activity in mice (protection from lethal intraperitoneal infection); settings: NCTC10649, 144 h, S. aureus, CF-1 female mice infected intraperitoneally with 100 times the LD50, treated at 1 and 5 hr after infection, cumulative mortalities on the sixth day
Experimental: (§2) The in vivo antibacterial activity of the compounds of the present invention was determined as follows: Aqueous solutions of the test compounds were prepared by dissolving the compound in distilled water, except for the compounds of examples 169 and 170 which were dissolved in a solution of 2% DMSO in distilled water.
(§3) After 18 hr incubation, a culture of Staphylococcus aureus NCTC 10649 was serially diluted by using 10-fold dilutions in 5% (w/v) hog gastric mucin. Cultures (0.5 mL) in a dilution from 10^-1 to 10^-8 were injected intraperitoneally into CF-1 female mice weighing approximately 20g. The LD50 (median lethal dose) for the test organism was calculated from the cumulative mortalities on the sixth day by the using the Reed and Muench procedure (Reed, L.J., and H. Muench, Amer. J. Hygiene, 27, 493 (1938)).
(§4) The above 18 hr culture was diluted in 5% (w/v) hog gastric mucin to obtain 100 times the LD50, and 0.5 mL was injected intraperitoneally into mice. The mice were treated subcutaneously (sc) or orally (po) with a specific amount of the test compound divided equally to be administered at 1 and 5 hr after infection. A group of 10 animals each for at least three dose levels was thus treated, and the deaths were recorded daily for 6 days. Ten mice were left untreated as infection control. ED50 values were calculated from the cumulative mortalities on the sixth day after infection by using the trimmed version of the Logit method ( Hamilton, M.A., R.C. Russo, and R.V. Thurston, Environ. Sci. Technol. 11, 714 (1977)).

Escherichia coli JUHL [29] = assay: as above; settings: 144 h, E. coli JUHL, mice infected intraperitoneally, treated at 1 and 5 hr after infection, cumulative mortalities on the sixth day
Experimental: as §2, §3, §4
The LD50 for Escherichia coli JUHL was determined in a manner similar to that above for S. aureus. The 18 hr cultures of this organism were also prepared for po and sc testing in mice, from which ED50 values were calculated. Positive controls were run with temafloxacin as the test compound, for which ED50 values were also calculated.

| SMILES | MIC values [1] [µg/mL] | MIC values [2] [µg/mL] | MIC values [3] [µg/mL] | MIC values (Escherichia coli DC-2) [µg/mL] | MIC values (Escherichia coli H560) [µg/mL] | MIC values (Escherichia coli JUHL [4]) [µg/mL] | MIC values (Escherichia coli KNK 437) [µg/mL] | MIC values (Escherichia coli SS) [µg/mL] | MIC values [5] [µg/mL] | MIC values [6] [µg/mL] | MIC values [7] [µg/mL] | MIC values [8] [µg/mL] | MIC values [9] [µg/mL] | MIC values [10] [µg/mL] | MIC values [11] [µg/mL] | MIC values [12] [µg/mL] | MIC values [13] [µg/mL] | MIC values [14] [µg/mL] | MIC values (Pseudomonas cepacia 296I) [µg/mL] | MIC values [15] [µg/mL] | also measured |
| --- | --- | --- | --- | --- | --- | --- | --- | --- | --- | --- | --- | --- | --- | --- | --- | --- | --- | --- | --- | --- | --- |
| CC(=O)N[C@H]1C[C@H](C)N(c2nc3c(-c4ccc(F)cc4F)cc(C(=O)O)c(=O)n3cc2F)C1 [Example 169, 2-((2S,4S)-4-Acetamido-2-methylpyrrolidin-1-yl)-9-(2,4-difluorophenyl)-3-fluoro-6H-6-oxopyrido[1,2-a]pyrimidine-7-carboxylic acid] | 3.1 (≈ 6.73 µM) | 3.1 (≈ 6.73 µM) | 1.56 (≈ 3.39 µM) | 12.5 (≈ 27.1 µM) | 0.78 (≈ 1.69 µM) | 0.78 (≈ 1.69 µM) | 6.2 (≈ 13.5 µM) | 0.005 (≈ 0.0109 µM) | 0.39 (≈ 0.847 µM) | 0.39 (≈ 0.847 µM) | 3.1 (≈ 6.73 µM) | 25 (≈ 54.3 µM) | > 100 | > 100 | 3.1 (≈ 6.73 µM) | 3.1 (≈ 6.73 µM) | 0.39 (≈ 0.847 µM) | 3.1 (≈ 6.73 µM) | 25 (≈ 54.3 µM) | 25 (≈ 54.3 µM) | MIC values [16]: 0.39 µg/mL (≈ 0.847 µM); MIC values [17]: 0.2 µg/mL (≈ 0.434 µM); MIC values [18]: 0.2 µg/mL (≈ 0.434 µM); MIC values [19]: 0.1 µg/mL (≈ 0.217 µM); MIC values [20]: 0.39 µg/mL (≈ 0.847 µM); MIC values [21]: 0.2 µg/mL (≈ 0.434 µM); MIC values [22]: 0.39 µg/mL (≈ 0.847 µM); MIC values [23]: 0.78 µg/mL (≈ 1.69 µM); MIC values [24]: 3.1 µg/mL (≈ 6.73 µM); MIC values [25]: 0.39 µg/mL (≈ 0.847 µM); MIC values [26]: 0.39 µg/mL (≈ 0.847 µM); MIC values [27]: 0.78 µg/mL (≈ 1.69 µM); ED50 ([28]; po): > 48 mg/kg; ED50 ([28]; sc): 7.5 mg/kg |
| CC1CN(c2cc3c(cc2F)c(=O)c(C(=O)O)cn3-c2ccc(F)cc2F)CCN1 (stereo not shown) [temafloxacin, reference compound] |  |  |  |  |  |  |  |  |  |  |  |  |  |  |  |  |  |  |  |  | ED50 ([28]; po): 1.5 mg/kg; ED50 ([28]; sc): 1.3 mg/kg; ED50 (Escherichia coli JUHL [29]; po): 1.5 mg/kg; ED50 (Escherichia coli JUHL [29]; sc): 0.5 mg/kg |
| CN1CCN(c2nc3c(-c4ccc(F)cc4F)cc(C(=O)O)c(=O)n3cc2F)CC1 [Example 159, 9-(2,4-Difluorophenyl)-3-fluoro-2-(4-methylpiperazin-1-yl)-6H-6-oxopyridol[1,2-a]pyrimidine-7-carboxylic acid] | 0.78 (≈ 1.86 µM) | 0.78 (≈ 1.86 µM) | 6.2 (≈ 14.8 µM) | 6.2 (≈ 14.8 µM) | 0.39 (≈ 0.932 µM) | 0.39 (≈ 0.932 µM) | 6.2 (≈ 14.8 µM) | 0.02 (≈ 0.0478 µM) | 0.2 (≈ 0.478 µM) | 12.5 (≈ 29.9 µM) | 25 (≈ 59.8 µM) | 25 (≈ 59.8 µM) | > 100 | > 100 | 6.2 (≈ 14.8 µM) | 3.1 (≈ 7.41 µM) | 0.39 (≈ 0.932 µM) | 3.1 (≈ 7.41 µM) | 25 (≈ 59.8 µM) | > 100 | MIC values [16]: 0.39 µg/mL (≈ 0.932 µM); MIC values [17]: 0.2 µg/mL (≈ 0.478 µM); MIC values [18]: 0.39 µg/mL (≈ 0.932 µM); MIC values [19]: 0.2 µg/mL (≈ 0.478 µM); MIC values [20]: 0.39 µg/mL (≈ 0.932 µM); MIC values [21]: 0.2 µg/mL (≈ 0.478 µM); MIC values [22]: 0.39 µg/mL (≈ 0.932 µM); MIC values [23]: 3.1 µg/mL (≈ 7.41 µM); MIC values [24]: 12.5 µg/mL (≈ 29.9 µM); MIC values [25]: 3.1 µg/mL (≈ 7.41 µM); MIC values [26]: 3.1 µg/mL (≈ 7.41 µM); MIC values [27]: 3.1 µg/mL (≈ 7.41 µM) |
